Experimental data: PMC10824666 (Nature Cancer, 2023)
Where two headings read alike, the source gives them in different places. One block for each compound: values may come before it.

How the values were obtained:
Experiment in all cases: biochemical
Set-up in all cases: Eurofins DiscoverX kinase panel, competitive binding assay at 1 uM, percent of DMSO control
Settings in all cases: competitive binding, percent of DMSO control
TBK1 = target: T1, TBK1 (Homo sapiens, UniProt Q9UHD2)
T1 sequence (Q9UHD2 1-729): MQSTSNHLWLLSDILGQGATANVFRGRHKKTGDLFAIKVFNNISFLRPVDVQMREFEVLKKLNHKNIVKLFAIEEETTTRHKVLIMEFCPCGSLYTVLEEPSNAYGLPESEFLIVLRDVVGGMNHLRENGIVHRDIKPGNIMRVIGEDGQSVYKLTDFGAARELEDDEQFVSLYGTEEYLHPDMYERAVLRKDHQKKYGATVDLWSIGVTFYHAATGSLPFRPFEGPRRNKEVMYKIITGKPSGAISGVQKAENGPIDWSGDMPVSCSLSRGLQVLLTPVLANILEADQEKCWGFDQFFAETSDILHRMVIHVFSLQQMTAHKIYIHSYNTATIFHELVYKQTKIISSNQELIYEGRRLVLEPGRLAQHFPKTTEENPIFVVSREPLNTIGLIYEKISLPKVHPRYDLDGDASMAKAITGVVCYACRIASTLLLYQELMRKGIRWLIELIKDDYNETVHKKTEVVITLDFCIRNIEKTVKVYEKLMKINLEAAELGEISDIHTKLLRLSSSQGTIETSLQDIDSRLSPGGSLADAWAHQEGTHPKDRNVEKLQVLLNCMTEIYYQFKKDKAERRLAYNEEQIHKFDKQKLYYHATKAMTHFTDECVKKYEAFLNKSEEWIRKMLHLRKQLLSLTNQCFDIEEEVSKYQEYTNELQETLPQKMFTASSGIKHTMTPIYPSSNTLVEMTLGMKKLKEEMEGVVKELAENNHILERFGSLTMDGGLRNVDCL
Method in brief: (§1)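 Single-point profiling at 1 µM compound in a competition-binding format against 96 kinases, read out as POC relative to control; n = 1.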

TSSK1B = target: T2, TSSK1B (Homo sapiens, UniProt Q9BXA7)
T2 sequence (Q9BXA7 1-367): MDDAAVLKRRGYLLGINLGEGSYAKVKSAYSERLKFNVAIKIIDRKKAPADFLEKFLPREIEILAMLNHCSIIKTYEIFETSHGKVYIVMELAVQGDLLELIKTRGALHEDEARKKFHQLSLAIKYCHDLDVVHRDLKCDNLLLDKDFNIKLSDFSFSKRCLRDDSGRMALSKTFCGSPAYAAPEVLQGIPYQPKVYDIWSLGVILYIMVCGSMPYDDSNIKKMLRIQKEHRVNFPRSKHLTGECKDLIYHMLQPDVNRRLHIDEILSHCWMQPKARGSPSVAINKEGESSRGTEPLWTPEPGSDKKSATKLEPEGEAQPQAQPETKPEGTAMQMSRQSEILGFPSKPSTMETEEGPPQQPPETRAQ
Method in brief: as §1

CDK8 = CDK8 (Homo sapiens, UniProt P49336)
Method in brief: as §1

[1] = read-out: Kinome Profiling performed by Eurofins DiscoverX / AM-0277, 1.0 µM / POC
[2] = read-out: Kinome Profiling performed by Eurofins DiscoverX / AM-1882, 1.0 µM / POC
[3] = read-out: Kinome Profiling performed by Eurofins DiscoverX / AM-5308, 1.0 µM / POC

Chain of CDK8 (P49336 whole entry): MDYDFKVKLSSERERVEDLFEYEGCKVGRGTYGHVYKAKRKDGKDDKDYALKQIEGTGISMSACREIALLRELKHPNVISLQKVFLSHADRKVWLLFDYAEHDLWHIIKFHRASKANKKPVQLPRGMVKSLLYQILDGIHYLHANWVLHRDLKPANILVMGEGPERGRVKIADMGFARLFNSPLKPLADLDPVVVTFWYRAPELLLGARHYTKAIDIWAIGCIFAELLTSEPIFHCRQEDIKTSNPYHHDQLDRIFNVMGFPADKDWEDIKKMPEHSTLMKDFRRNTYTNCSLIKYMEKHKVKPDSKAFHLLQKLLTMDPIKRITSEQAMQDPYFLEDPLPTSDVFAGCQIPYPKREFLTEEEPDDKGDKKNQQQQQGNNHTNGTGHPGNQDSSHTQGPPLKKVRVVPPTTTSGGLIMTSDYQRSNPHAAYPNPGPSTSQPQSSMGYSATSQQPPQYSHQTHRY

remaining activity at 1 µM (TBK1; [1]): 87% | remaining activity at 1 µM (TSSK1B; [1]): 84% | remaining activity at 1 µM (CDK8; [1]): 70%
Structure (SMILES): CC(C)(CO)Nc1ccc(C(=O)Nc2cccc(S(=O)(=O)C3CCCC3)c2)c(N2CCC3(CC2)CC3)n1 [AM-0277]

remaining activity at 1 µM (TBK1; [2]): 82% | remaining activity at 1 µM (TSSK1B; [2]): 100% | remaining activity at 1 µM (CDK8; [2]): 34.5%
Structure (SMILES): CC(C)(C)NS(=O)(=O)c1cccc(NC(=O)c2ccc(S(=O)(=O)NC(C)(C)C)cc2N2CCC3(CC2)CC3)c1 [AM-1882]

remaining activity at 1 µM (TBK1; [3]): 100% | remaining activity at 1 µM (TSSK1B; [3]): 100% | remaining activity at 1 µM (CDK8; [3]): 87%
Structure (SMILES): C[C@@H]1CN(c2cccc(NC(=O)c3ccc(NS(=O)(=O)CCO)cc3N3CCC4(CC3)CC4)n2)CCO1 [AM-5308]
